The test system of the assay is autoproduction of cortisol. Kind of assay: dexamethasone inhibition test: serum cortisol the morning after low oral doses of dexamethasone.
Where [1] appears, read: 'dangerously' belly fat individuals.

Where “and” joins values, the source holds several entries; their conditions need not be identical. Equal entries are not always repeated.

As for `C[C@@H]1C[C@H]2[C@@H]3CCC4=CC(=O)C=C[C@]4(C)[C@@]3(F)[C@@H](O)C[C@]2(C)[C@@]1(O)C(=O)CO` [dexamethasone], under setting [1], the “dose from which inhibition could be measured” value is 0.25 mg and the “dose of maximum inhibition” value is 0.5 to 1 mg. Moreover, the “critical doses with significant differences between belly fat and other individuals” value (about 20 individuals, most distinct difference at 0.5 mg) was 0.125 mg and 0.5 mg. Besides, the “dose at which inhibition of the autoproduction of cortisol was already obtained” value (normal weight individuals and those with general overweight but without belly fatness) came out at 0.05 mg. Further, under “normal weight individuals and those with general overweight but without belly fatness (for a few also at 0.5 mg)”, the “dose of maximum inhibition of the autoproduction of cortisol” value came out at 1 mg.

(Values after patent US7217505B2, “Method for determining whether condition is symptom of metabolic syndrome” (Cortendo AB, priority 1998, dated 2007).)
